These results are taken from patent publication US9630952B2, “Crystalline forms of afatinib di-maleate” (IVAX INTERNATIONAL GMBH, priority 2014, dated 2017).

Holding throughout (type): physicochemical
Data set [1] can be described thus: competitive slurry experiment comparing thermodynamic stabilities of forms A and Alpha. The source says:
As discussed above, crystalline form Alpha of Afatinib di-maleate has some advantages. […] Pharmaceutical molecules may display solid to solid phase transformations, transformations between polymorphs or between unsolvated and solvated form, which may be detected by competitive slurry experiments.

Data set [2] can be described thus: polymorphic stability under mechanical stress. The note with it: exposed to mechanical stress (e.g. grinding, tabletting pressure); compared to Form A. The text has this:
As discussed above, crystalline form M of Afatinib di-maleate has advantages. […] As formulation processes often involve mechanical stress exerting technologies e.g. during grinding or under strong pressure in a tabletting machine, the polymorphic stability of API material is a desirable property.

A short description of a further data set: wettability. The note with it: compared to form A. The source says: As discussed above, crystalline form N of Afatinib di-maleate has some advantages. […] Wetting is the ability of a liquid (e.g. water) to maintain contact with a solid surface (e.g., API). It is a precursor to dissolution and so the wettability of a drug particle has a significant influence on the dissolution rates and the release characteristics in an oral pharmaceutical delivery. Wettability may also influence the interactions with other particles during formulation and manufacture. A polymorph with enhanced wettability ensures proper solubility measurement of the API per se and in formulation during dissolution experiments, i.e., better distribution of water and properly wetted sample.

Turning to `CN(C)C/C=C/C(=O)Nc1cc2c(Nc3ccc(F)c(Cl)c3)ncnc2cc1O[C@H]1CCOC1` [Form Alpha, Afatinib di-maleate], the thermodynamic stability result in data set [1] (concluded from competitive slurry in ethanol at room temperature, compared to form A) is reported as “enhanced thermodynamic stability of form Alpha over form A”. The “solid form resulting from competitive slurry of forms A and Alpha” value in data set [1] (in ethanol at room temperature, after about 67 hours) is given as “pure form Alpha”.
On to `CN(C)C/C=C/C(=O)Nc1cc2c(Nc3ccc(F)c(Cl)c3)ncnc2cc1O[C@H]1CCOC1` [Form M, Afatinib di-maleate], for which the polymorphic stability entry in data set [2] is on record as “enhanced polymorphic stability compared to Form A”.
Take `CN(C)C/C=C/C(=O)Nc1cc2c(Nc3ccc(F)c(Cl)c3)ncnc2cc1O[C@H]1CCOC1` [Form N, Afatinib di-maleate]: the wettability entry in the data set “wettability” is recorded as “better wettability over form A”.
